Assay results reported in patent US11147819B2, “EZH2 inhibitors for treating cancer” (Epizyme, Inc., priority 2016, dated 2021).

Tests used:
KARPAS-422 = experiment: Combination study with tazemetostat (synergy by IC50 shifts or Calcusyn); assay type: cell-based; conditions: KARPAS-422 (EZH2 mutant)
Procedure: (§1) Synergy was assessed by IC50 shifts or Calcusyn. [table]

TMD8 = experiment: as above; assay type: cell-based; conditions: TMD8 (ABC)
Procedure: as §1

SU-DHL5 = experiment: as above; assay type: cell-based; conditions: SU-DHL-5 (EZH2 wt)
Procedure: as §1

PRDM1 (BLIMP1) in TMD8 = experiment: PRDM1 (BLIMP1) expression by qPCR or western blot; assay type: cell-based; conditions: ABC cell line TMD8; 7 days with 1 μM TAZ vs DMSO
Procedure: (§2) FIG. 4. Cells were treated for 7 days with 1 μM TAZ or DMSO.

[1] = system: PRDM1 (BLIMP1) in GCB lines; experiment: PRDM1 (BLIMP1) expression by qPCR or western blot; assay type: cell-based; conditions: all GCB lines; 7 days with 1 μM TAZ vs DMSO
Procedure: as §2

DLBCL cell lines = experiment: RNAseq GSEA for plasma and memory cell gene sets; assay type: cell-based; conditions: 1 μM TAZ for 4 days; KARPAS-422, SU-DHL-6, Farage, SU-DHL-5, TMD8, Toledo
Procedure: FIG. 3. […] RNAseq data from KARPAS-422 (EZH2 mutant GCB), SU-DHL-6 (EZH2 mutant GCB) Farage (EZH2 wt GCB), SU-DHL-5 (EZH2 wt GCB), TMD8 (EZH2 wt ABC) and Toledo (EZH2 wt ABC) treated with 1 μM TAZ for 4 days was analyzed using GSEA (Broad Institute) for the presence of plasma and memory cell gene sets.

Cells = experiment: Apoptosis, single agents or combination, 10 days (FIG. 6B); assay type: cell-based
Procedure: (§3) FIG. 6. A) Cells were treated for 7 days with single agents or in combination. […] This effect is not seen in the ABC cell line, TMD8. B) Cells were treated for 10 days with single agents (100 ng/mL CD40L) or in combination.

IκBα in SU-DHL-5 cells = experiment: IκBα degradation in response to CD40L (FIG. 7B); assay type: cell-based; conditions: 4-day treatment, CD40L 500 ng/mL
[2] = system: OCI-LY19 cell line xenograft; experiment: Cell line xenograft model, tumor growth; assay type: in vivo
From the text: (§4) FIG. 1. A) 14 evaluable NHL patients treated (V. Ribrag ASH 2015): 13 WT+1 mutant by cobas® EZH2 Mutation Test (in development, Roche Molecular Systems, Inc.)*Cheson Criteria. B) EZH2 mutant cell lines are more sensitive to TAZ in vitro. […] Cell of origin of cell lines determined by RNAseq analysis (Scott et al. Blood 2014).

[3] = system: SU-DHL-5 cell line xenograft; experiment: Cell line xenograft model, tumor growth; assay type: in vivo; conditions: SU-DHL-5 xenograft model
From the text: as §4

Oral bioavailability = conditions: in vivo
B-cell lymphomas = conditions: phase I; patients with B-cell lymphomas; cited from earlier work
GCB lines = experiment: Combination of CD40L with TAZ (FIG. 5); assay type: cell-based
[4] = system: PRDM1 in SU-DHL-5 (wt EZH2); experiment: PRDM1 expression after co-treatment with TAZ and CD40L (FIG. 7A); assay type: cell-based; conditions: 14-day co-treatment
[5] = system: H3K27 trimethylation in KARPAS-422; experiment: H3K27 trimethylation inhibition (FIG. 6C); assay type: cell-based; conditions: KARPAS-422, mutant EZH2 cell line
Procedure: as §3

| oral bioavailability (Oral bioavailability) | Molecule | Combination effect with TAZ (FIG. 5) (KARPAS-422) | Combination effect with TAZ (FIG. 5) (TMD8) | Combination effect with TAZ (FIG. 5) (SU-DHL5) | PRDM1 (BLIMP1) expression (PRDM1 (BLIMP1) in TMD8) | PRDM1 (BLIMP1) expression [1] | plasma cell and memory cell gene sets (RNAseq, GSEA) (DLBCL cell lines) | apoptosis, single agent compared to DMSO (Cells) | IκBα degradation in response to CD40L (IκBα in SU-DHL-5 cells) | tumor growth in response to TAZ treatment [2] | tumor growth in response to TAZ treatment [3] | clinical response (B-cell lymphomas) | Combination effect with TAZ (FIG. 5) (GCB lines) | PRDM1 expression, co-treatment with TAZ [4] | apoptosis, combination with TAZ compared to TAZ single agent (Cells; 100 ng/mL CD40L) | effect on TAZ inhibition of H3K27 trimethylation [5] |
| --- | --- | --- | --- | --- | --- | --- | --- | --- | --- | --- | --- | --- | --- | --- | --- | --- |
|  | COc1cc(Nc2ncc(F)c(Nc3ccc4c(n3)NC(=O)C(C)(C)O4)n2)cc(OC)c1OC [Tamatinib] | Synergy | Synergy | Synergy |  |  |  |  |  |  |  |  |  |  |  |  |
| orally bioavailable | CCN(c1cc(-c2ccc(CN3CCOCC3)cc2)cc(C(=O)NCc2c(C)cc(C)[nH]c2=O)c1C)C1CCOCC1 [tazemetostat] |  |  |  | slight decrease | increase | induces a gene set that is heavily enriched for plasma cell and memory cell genes | significant increase of apoptosis | does not affect | tumor growth inhibition | tumor growth inhibition | objective clinical responses |  |  |  |  |
|  | CD40L: recombinant CD40L, a B-cell co-stimulatory molecule (protein, UniProt P29965 113-261, looked up) CD40 ligand, soluble form: MQKGDQNPQIAAHVISEASSKTTSVLQWAEKGYYTMSNNLVTLENGKQLTVKRQGLYYIYAQVTFCSNREASSQAPFIASLCLKSPGRFERILLRAANTHSSAKPCGQQSIHLGGVFELQPGASVFVNVTDPSQVSHGTGFTSFGLLKL |  | slight synergy |  |  |  |  |  |  |  |  |  | antagonism | up-regulation of PRDM1 | significant decrease of apoptosis | does not affect |
